In data set [1] the test system is DIO mice. As to the kind of experiment: Chronic treatment of DIO mice (body weight, food intake, leptin, DEXA). Format: in vivo. Conditions: high fat diet induced mice, summary. As to the method:
DIO mice were treated with ACY775 (10 mg/kg/day, i.p.) for 3 weeks. Daily body weight (g) of DIO mice treated with vehicle (n=17) or ACY775 (n=17) during 3 weeks of treatment was determined. Daily food intake (g) during 3 weeks of vehicle or ACY775 treatment was assessed. 24 hours' food intake per mouse during the first week of vehicle or ACY775 treatment was determined. Serum leptin (ng/ml) levels after 3 weeks of vehicle (n=24) or ACY775 (n=24) treatment was assessed. Lean mass (g), fat mass (g) and fat percentage (%) after 3 weeks of vehicle (n=17) or ACY775 (n=17) treatment measured by Dual-energy X-ray absorptiometry (DEXA) scan. DEXA scans were performed in two different cohorts. Glucose tolerance test (GTT) after 1 week of vehicle (n=33) or ACY775 (n=26) treated DIO mice was assessed. Area of curve (AOC) analysis for GTT was performed. Blood glucose (mg/dl) levels after 1 week of vehicle (n=17) or ACY775 (n=16) were assessed in treated DIO mice. Insulin tolerance test (ITT) was performed after 2 weeks of vehicle (n=31) or ACY775 (n=21) treatment of DIO mice. Serum insulin (ng/ml) levels were measured after 3 weeks of vehicle (n=22) or ACY775 (n=21) in treated DIO mice. A homeostatic model assessment of insulin resistance (HOMA-IR) was analyzed after 3 weeks of vehicle (n=14) or ACY775 (n=13) treated DIO mice.
Food intake was analyzed hourly until 3:00 am. […] DEXA scans were performed in two different cohorts.
DIO mice then were treated with ricolinostat (50 mg/kg, i.p.) for 3 weeks. Daily body weight (g), daily food intake (g), serum leptin (ng/ml) levels after 3 weeks of vehicle (n=8) or ricolinostat (n=8) treatment, lean mass (g); fat mass and fat percentage (%) after 3 weeks of vehicle (n=16) or ricolinostat (n=17) treatment measured by DEXA scan were determined.
Studies were conducted as described above with reference to ACY775.
DIO mice then were treated with bavarostat (10 mg/kg, i.p.) for 3 weeks and daily body weight (g) of DIO mice treated with Veh (n=9) or bavarostat (n=9) measured during the three weeks of treatment period. Daily food intake (g) during 3 weeks of Veh or bavarostat treatment was also measured.
ACY1083 was administered to DIO mice as described in Example 3.

Data set [2] relates to DIO mice. The description is as above. The format is in vivo. Conditions: oral administration.
The conditions of data set [3]: in words; cited from earlier work.
The target of data set [4] is HDAC6 (Homo sapiens (Human), UniProt Q9UBN7). To be noted: cited from earlier work.
HDAC6, sequence (Q9UBN7 whole entry, species assumed): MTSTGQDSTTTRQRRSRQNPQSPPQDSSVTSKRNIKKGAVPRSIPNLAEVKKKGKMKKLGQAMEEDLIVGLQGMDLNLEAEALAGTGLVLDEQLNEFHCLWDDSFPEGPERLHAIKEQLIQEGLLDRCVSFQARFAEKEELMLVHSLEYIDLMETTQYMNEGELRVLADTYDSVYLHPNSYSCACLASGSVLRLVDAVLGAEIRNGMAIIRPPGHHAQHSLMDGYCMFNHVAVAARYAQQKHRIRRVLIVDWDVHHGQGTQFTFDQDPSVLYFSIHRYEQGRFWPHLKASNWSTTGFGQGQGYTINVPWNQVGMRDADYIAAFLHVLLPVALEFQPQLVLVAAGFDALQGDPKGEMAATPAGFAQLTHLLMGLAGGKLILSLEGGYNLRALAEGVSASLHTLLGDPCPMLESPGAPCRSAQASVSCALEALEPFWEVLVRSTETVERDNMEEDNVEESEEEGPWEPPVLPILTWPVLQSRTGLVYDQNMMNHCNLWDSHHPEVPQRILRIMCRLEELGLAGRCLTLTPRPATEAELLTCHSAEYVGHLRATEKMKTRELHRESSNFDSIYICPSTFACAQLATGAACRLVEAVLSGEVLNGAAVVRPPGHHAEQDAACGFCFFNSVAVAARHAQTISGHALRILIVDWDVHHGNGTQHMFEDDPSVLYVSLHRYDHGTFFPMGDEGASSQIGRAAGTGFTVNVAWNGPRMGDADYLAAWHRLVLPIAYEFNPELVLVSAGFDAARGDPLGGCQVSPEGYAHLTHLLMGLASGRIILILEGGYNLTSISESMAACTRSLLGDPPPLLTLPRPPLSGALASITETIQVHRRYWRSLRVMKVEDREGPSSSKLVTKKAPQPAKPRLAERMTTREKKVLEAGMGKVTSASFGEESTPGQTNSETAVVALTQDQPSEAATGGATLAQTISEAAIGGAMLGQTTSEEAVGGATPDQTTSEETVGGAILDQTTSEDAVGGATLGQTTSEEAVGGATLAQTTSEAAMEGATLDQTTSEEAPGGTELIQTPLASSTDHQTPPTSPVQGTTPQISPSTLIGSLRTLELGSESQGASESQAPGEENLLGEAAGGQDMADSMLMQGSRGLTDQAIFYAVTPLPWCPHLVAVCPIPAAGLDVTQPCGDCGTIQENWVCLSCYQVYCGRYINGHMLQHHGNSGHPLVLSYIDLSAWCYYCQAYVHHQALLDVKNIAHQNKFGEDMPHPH

Entries after “also recorded” stand apart in the source; their conditions may differ.

Take `O=C(NO)c1cnc(NC2(c3ccccc3)CCC(F)(F)CC2)nc1` [ACY1083]: in data set [1], the “food intake and total body fat mass” value was “significant reduction of food intake and total body fat mass”. Moreover, in data set [2], the “body weight over 14 days” value is listed as “significant decrease in body weight; also recorded: Significant weight loss; also recorded: reduced body weight”. The “brain penetrance / BBB permeability” value in data set [3] is reported as “brain-penetrating”. For the same compound, in data set [4], the “selectivity for HDAC6 than all other classes of HDAC isoforms” value is listed as 260 fold.

The record behind these values is patent US20240252496A1, “SELECTIVE HYPOTHALAMUS PERMEABLE HDAC6 INHIBITORS FORTREATMENT OF LEPTIN-RESISTANT OBESITY” (The Children’s Medical Center Corporation, priority 2022, published 2024).
